# pIC50: −log10 of the molar value.
# Tested on: PDC KRAS tumor spheroids with HUVEC/MSC, viability
# Test: Anticancer human tumor 349418-098-R-PDC patient-derived lung adenocarcinoma cell line growth inhibition [KRAS2]
# Conditions: for pIC50: curve of first compound; for viability, T/C: stronger effect = lower value
# In short: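 Combination screen of spheroid viability in tumor-cell co-cultures with endothelial (HUVEC) and mesenchymal stem cell stroma. Each agent was tested in half-log dilutions, topping at clinical Cmax or at 10 microM without a known Cmax.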
# [1] = second compound 0.0316 µM, first compound 0.0316 µM
# [2] = second compound 0.0316 µM, first compound 0.1 µM
# [3] = second compound 0.0316 µM, first compound 0.316 µM
# [4] = second compound 0.0316 µM, first compound 1 µM
# [5] = second compound 0.0316 µM, first compound 3.16 µM
# [6] = second compound 0.0316 µM, first compound 10 µM
# [7] = second compound 0.1 µM, first compound 0.0316 µM
# [8] = second compound 0.1 µM, first compound 0.1 µM
# [9] = second compound 0.1 µM, first compound 0.316 µM
# [10] = second compound 0.1 µM, first compound 1 µM
# [11] = second compound 0.1 µM, first compound 3.16 µM
# [12] = second compound 0.1 µM, first compound 10 µM
# [13] = second compound 0.316 µM, first compound 0.0316 µM
# [14] = second compound 0.316 µM, first compound 0.1 µM
# [15] = second compound 0.316 µM, first compound 0.316 µM
# [16] = second compound 0.316 µM, first compound 1 µM
# [17] = second compound 0.316 µM, first compound 3.16 µM
# [18] = second compound 0.316 µM, first compound 10 µM
# [19] = second compound 1 µM, first compound 0.0316 µM
# [20] = second compound 1 µM, first compound 0.1 µM
# [21] = second compound 1 µM, first compound 0.316 µM
# [22] = second compound 1 µM, first compound 1 µM
# [23] = second compound 1 µM, first compound 3.16 µM
# [24] = second compound 1 µM, first compound 10 µM
# [25] = second compound 3.16 µM, first compound 0.0316 µM
# [26] = second compound 3.16 µM, first compound 0.1 µM
# [27] = second compound 3.16 µM, first compound 0.316 µM
# [28] = second compound 3.16 µM, first compound 1 µM
# [29] = second compound 3.16 µM, first compound 3.16 µM
# [30] = second compound 3.16 µM, first compound 10 µM
# 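Further: spheroids exposed to compounds for seven days before readout.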
SMILES,pIC50 (second compound 0.0316 µM),pIC50 (second compound 0.1 µM),pIC50 (second compound 0.316 µM),pIC50 (second compound 1 µM),pIC50 (second compound 3.16 µM),"viability, T/C [1] [%]","viability, T/C [2] [%]","viability, T/C [3] [%]","viability, T/C [4] [%]","viability, T/C [5] [%]","viability, T/C [6] [%]","viability, T/C [7] [%]","viability, T/C [8] [%]","viability, T/C [9] [%]","viability, T/C [10] [%]","viability, T/C [11] [%]","viability, T/C [12] [%]","viability, T/C [13] [%]","viability, T/C [14] [%]","viability, T/C [15] [%]",further results
COC(=O)c1ccc2c(C(=Nc3ccc(N(C)C(=O)CN4CCN(C)CC4)cc3)c3ccccc3)c(O)[nH]c2c1 + C=CC(=O)N1CCN(c2nc(OCC3CCCN3C)nc3c2CCN(c2cccc4cccc(C)c24)C3)CC1CC#N,6.34,6.49,6.81,> 7.50,> 7.50,65.9,78.3,58.5,28.9,15.6,15,88.9,87.6,46.3,25.4,9.49,9.82,75.2,51,42.3,"viability, T/C [16]: 30.4%; viability, T/C [17]: 10.6%; viability, T/C [18]: 6.76%; viability, T/C [19]: 44.8%; viability, T/C [20]: 24.2%; viability, T/C [21]: 27.8%; viability, T/C [22]: 23.8%; viability, T/C [23]: 0.91%; viability, T/C [24]: 0.96%; viability, T/C [25]: 0.1%; viability, T/C [26]: 0.08%; viability, T/C [27]: 0.07%; viability, T/C [28]: 0.05%; viability, T/C [29]: 0.03%; viability, T/C [30]: 0.05%"
COc1cc(Nc2ncc3c(n2)-c2ccc(Cl)cc2C(c2c(F)cccc2OC)=NC3)ccc1C(=O)O + C=CC(=O)N1CCN(c2nc(OCC3CCCN3C)nc3c2CCN(c2cccc4cccc(C)c24)C3)CC1CC#N,7.39,7.26,> 7.50,> 7.50,> 7.50,55.8,29.1,33.7,28.3,28.1,21.2,60.8,36.3,36.3,26.1,28.2,25.4,49.7,20.5,27.8,"viability, T/C [16]: 31.9%; viability, T/C [17]: 20.2%; viability, T/C [18]: 19.4%; viability, T/C [19]: 24%; viability, T/C [20]: 24%; viability, T/C [21]: 21.8%; viability, T/C [22]: 19.7%; viability, T/C [23]: 16.2%; viability, T/C [24]: 17%; viability, T/C [25]: 0.09%; viability, T/C [26]: 0.09%; viability, T/C [27]: 0.11%; viability, T/C [28]: 0.08%; viability, T/C [29]: 0.49%; viability, T/C [30]: 0.12%"
O=C(c1cc(Cc2n[nH]c(=O)c3ccccc23)ccc1F)N1CCN(C(=O)C2CC2)CC1 + C=CC(=O)N1CCN(c2nc(OCC3CCCN3C)nc3c2CCN(c2cccc4cccc(C)c24)C3)CC1CC#N,6.72,6.77,5.92,6.45,> 7.50,86.9,75.7,29.1,21.3,17.5,15.6,81.2,50.7,50.7,24.5,20.9,17.5,91.6,88,68.2,"viability, T/C [16]: 62.1%; viability, T/C [17]: 23.1%; viability, T/C [18]: 18.9%; viability, T/C [19]: 51.9%; viability, T/C [20]: 55.5%; viability, T/C [21]: 52.5%; viability, T/C [22]: 34.6%; viability, T/C [23]: 26.7%; viability, T/C [24]: 20.6%; viability, T/C [25]: 0.11%; viability, T/C [26]: 0.12%; viability, T/C [27]: 0.11%; viability, T/C [28]: 0.11%; viability, T/C [29]: 0.12%; viability, T/C [30]: 1.16%"
